Test results published in patent publication EP0295827A2, “Use of 24,25-dihydroxy-cholecalciferol in mending bone fractures” (priority 1987, dated 1988).

Experiments:
[1] = tested on: rabbits suffering fracture; assay: Fibula fracture model: X-ray inspection; format: in vivo, Japanese white house rabbits; details: 100 µg/kg oral, 3 weeks after the bones had been broken
Text: The right fibulae of mature house rabbits (Japanese white house rabbits having a weight of about 3 kg) were broken at the central portions under anesthetic with a dental hand drill. Each of the house rabbits was kept in a separate cage and was allowed to take an ordinary solid food (CR-1, produced by Nippon Clare Corp.) and city water freely. 24R,25-(OH)₂-D₃ and 24S,25-(OH)₂-D₃ were dispersed in an aqueous 0.5% CMC solution and orally administered to the house rabbits through a rubber catheter. The experimental groups were as follows:
The respective medicines or aqueous 0.5% CMC solution was administered to these house rabbits for 3 weeks or 6 weeks after the bones had been broken. Thereafter, the house rabbits were killed and the fibulae were taken out for X-ray inspection and a strength test (bending test by DDV-VMF produced by Toyo Baldwin Co., Ltd.).

ICR mice [2] = assay: 30-day repeated oral administration: biochemical serum test; format: in vivo; design: key: ↓: Decreased; →: No change; ↑: Increased; details: 30 days, vs control group
Experimental: (§1) 24R,25-(OH)₂-D₃ was dissolved in 1% ethanol containing Panacate 810 to a predetermined concentration and the resultant solution was forcibly and orally administered to 5-week-old male or female ICR mice for 30 days in succession so that the does might become to 10 µg/kg/day, 100 µg/kg/day and 1,000 µg/kg/day, respectively. The thus treated mice were compared with a group of mice to which only the solvent had been administered in the following test items.

ICR mice [3] = assay: 30-day repeated oral administration: general blood test; format: in vivo; design: key: ↓: Decreased; →: No change; ↑: Increased; details: 30 days, vs control group
Experimental: as §1

Structure (SMILES): C=C1CC[C@H](O)C/C1=C/C=C1\CCC[C@]2(C)[C@@H]([C@H](C)CC[C@@H](O)C(C)(C)O)CC[C@@H]12 [24R,25-(OH)₂-D₃]
- X-ray inspection [1]: the cure of the fracture was accelerated
- A/G (ICR mice [2]; female, 10 µg/kg·day oral): →
- ALP (ICR mice [2]; female, 10 µg/kg·day oral): →
- Aℓb (ICR mice [2]; female, 10 µg/kg·day oral): →
- BUN (ICR mice [2]; female, 10 µg/kg·day oral): →
- Ca (ICR mice [2]; female, 10 µg/kg·day oral): →
- GOT (ICR mice [2]; female, 10 µg/kg·day oral): →
- GPT (ICR mice [2]; female, 10 µg/kg·day oral): →
- Gℓu (ICR mice [2]; female, 10 µg/kg·day oral): →
- I-P (ICR mice [2]; female, 10 µg/kg·day oral): →
- LDH (ICR mice [2]; female, 10 µg/kg·day oral): →
- T-Biℓ (ICR mice [2]; female, 10 µg/kg·day oral): →
- T-CHO (ICR mice [2]; female, 10 µg/kg·day oral): →
- T-P (ICR mice [2]; female, 10 µg/kg·day oral): →
- A/G (ICR mice [2]; female, 100 µg/kg·day oral): →
- ALP (ICR mice [2]; female, 100 µg/kg·day oral): →
- Aℓb (ICR mice [2]; female, 100 µg/kg·day oral): →
- BUN (ICR mice [2]; female, 100 µg/kg·day oral): →
- Ca (ICR mice [2]; female, 100 µg/kg·day oral): →
- GOT (ICR mice [2]; female, 100 µg/kg·day oral): →
- GPT (ICR mice [2]; female, 100 µg/kg·day oral): →
- Gℓu (ICR mice [2]; female, 100 µg/kg·day oral): →
- I-P (ICR mice [2]; female, 100 µg/kg·day oral): →
- LDH (ICR mice [2]; female, 100 µg/kg·day oral): →
- T-Biℓ (ICR mice [2]; female, 100 µg/kg·day oral): →
- T-CHO (ICR mice [2]; female, 100 µg/kg·day oral): →
- T-P (ICR mice [2]; female, 100 µg/kg·day oral): →
- A/G (ICR mice [2]; female, 1000 µg/kg·day oral): →
- ALP (ICR mice [2]; female, 1000 µg/kg·day oral): →
- Aℓb (ICR mice [2]; female, 1000 µg/kg·day oral): →
- BUN (ICR mice [2]; female, 1000 µg/kg·day oral): →
- Ca (ICR mice [2]; female, 1000 µg/kg·day oral): →
- GOT (ICR mice [2]; female, 1000 µg/kg·day oral): →
- GPT (ICR mice [2]; female, 1000 µg/kg·day oral): →
- Gℓu (ICR mice [2]; female, 1000 µg/kg·day oral): →
- I-P (ICR mice [2]; female, 1000 µg/kg·day oral): →
- LDH (ICR mice [2]; female, 1000 µg/kg·day oral): →
- T-Biℓ (ICR mice [2]; female, 1000 µg/kg·day oral): →
- T-CHO (ICR mice [2]; female, 1000 µg/kg·day oral): →
- T-P (ICR mice [2]; female, 1000 µg/kg·day oral): →
- A/G (ICR mice [2]; male, 10 µg/kg·day oral): →
- ALP (ICR mice [2]; male, 10 µg/kg·day oral): →
- Aℓb (ICR mice [2]; male, 10 µg/kg·day oral): →
- BUN (ICR mice [2]; male, 10 µg/kg·day oral): →
- Ca (ICR mice [2]; male, 10 µg/kg·day oral): →
- GOT (ICR mice [2]; male, 10 µg/kg·day oral): →
- GPT (ICR mice [2]; male, 10 µg/kg·day oral): →
- Gℓu (ICR mice [2]; male, 10 µg/kg·day oral): →
- I-P (ICR mice [2]; male, 10 µg/kg·day oral): →
- LDH (ICR mice [2]; male, 10 µg/kg·day oral): →
- T-Biℓ (ICR mice [2]; male, 10 µg/kg·day oral): →
- T-CHO (ICR mice [2]; male, 10 µg/kg·day oral): →
- T-P (ICR mice [2]; male, 10 µg/kg·day oral): →
- A/G (ICR mice [2]; male, 100 µg/kg·day oral): →
- ALP (ICR mice [2]; male, 100 µg/kg·day oral): →
- Aℓb (ICR mice [2]; male, 100 µg/kg·day oral): →
- BUN (ICR mice [2]; male, 100 µg/kg·day oral): →
- Ca (ICR mice [2]; male, 100 µg/kg·day oral): →
- GOT (ICR mice [2]; male, 100 µg/kg·day oral): →
- GPT (ICR mice [2]; male, 100 µg/kg·day oral): →
- Gℓu (ICR mice [2]; male, 100 µg/kg·day oral): →
- I-P (ICR mice [2]; male, 100 µg/kg·day oral): →
- LDH (ICR mice [2]; male, 100 µg/kg·day oral): →
- T-Biℓ (ICR mice [2]; male, 100 µg/kg·day oral): →
- T-CHO (ICR mice [2]; male, 100 µg/kg·day oral): →
- T-P (ICR mice [2]; male, 100 µg/kg·day oral): →
- A/G (ICR mice [2]; male, 1000 µg/kg·day oral): →
- ALP (ICR mice [2]; male, 1000 µg/kg·day oral): →
- Aℓb (ICR mice [2]; male, 1000 µg/kg·day oral): →
- BUN (ICR mice [2]; male, 1000 µg/kg·day oral): ↓
- Ca (ICR mice [2]; male, 1000 µg/kg·day oral): →
- GOT (ICR mice [2]; male, 1000 µg/kg·day oral): →
- GPT (ICR mice [2]; male, 1000 µg/kg·day oral): →
- Gℓu (ICR mice [2]; male, 1000 µg/kg·day oral): ↓
- I-P (ICR mice [2]; male, 1000 µg/kg·day oral): →
- LDH (ICR mice [2]; male, 1000 µg/kg·day oral): ↓
- T-Biℓ (ICR mice [2]; male, 1000 µg/kg·day oral): ↓
- T-CHO (ICR mice [2]; male, 1000 µg/kg·day oral): →
- T-P (ICR mice [2]; male, 1000 µg/kg·day oral): →
- Amount of hemoglobin (ICR mice [3]; female, 10 μg/kg·day oral): →
- Homatocrit (ICR mice [3]; female, 10 μg/kg·day oral): →
- Number of erythrocyte (ICR mice [3]; female, 10 μg/kg·day oral): →
- Number of leucocyte (ICR mice [3]; female, 10 μg/kg·day oral): →
- Amount of hemoglobin (ICR mice [3]; female, 100 μg/kg·day oral): →
- Homatocrit (ICR mice [3]; female, 100 μg/kg·day oral): →
- Number of erythrocyte (ICR mice [3]; female, 100 μg/kg·day oral): →
- Number of leucocyte (ICR mice [3]; female, 100 μg/kg·day oral): →
- Amount of hemoglobin (ICR mice [3]; female, 1000 μg/kg·day oral): →
- Homatocrit (ICR mice [3]; female, 1000 μg/kg·day oral): →
- Number of erythrocyte (ICR mice [3]; female, 1000 μg/kg·day oral): →
- Number of leucocyte (ICR mice [3]; female, 1000 μg/kg·day oral): →
- Amount of hemoglobin (ICR mice [3]; male, 10 μg/kg·day oral): →
- Homatocrit (ICR mice [3]; male, 10 μg/kg·day oral): →
- Number of erythrocyte (ICR mice [3]; male, 10 μg/kg·day oral): →
- Number of leucocyte (ICR mice [3]; male, 10 μg/kg·day oral): →
- Amount of hemoglobin (ICR mice [3]; male, 100 μg/kg·day oral): →
- Homatocrit (ICR mice [3]; male, 100 μg/kg·day oral): →
- Number of erythrocyte (ICR mice [3]; male, 100 μg/kg·day oral): →
- Number of leucocyte (ICR mice [3]; male, 100 μg/kg·day oral): →
- Amount of hemoglobin (ICR mice [3]; male, 1000 μg/kg·day oral): →
- Homatocrit (ICR mice [3]; male, 1000 μg/kg·day oral): →
- Number of erythrocyte (ICR mice [3]; male, 1000 μg/kg·day oral): →
- Number of leucocyte (ICR mice [3]; male, 1000 μg/kg·day oral): →
